Test results: patent US20210395327A1, “Growth Hormone-Releasing Hormone Antagonists and Uses Thereof” (United States Government As Represented By The Department …, priority 2019, published 2021)
“Also recorded” adds a separate entry of the source. Non-standard residues stand in square brackets, D forms with d. Residues, ends and D or L forms follow the SMILES beside them. *: point of attachment. Phenylacetyl(2,3,4,5,6-F5) = O=C(Cc1c(F)c(F)c(F)c(F)c1F)*; Phe(F5) = N[C@@H](Cc1c(F)c(F)c(F)c(F)c1F)C(=O)O; Phe(4-Cl) = N[C@@H](Cc1ccc(Cl)cc1)C(=O)O; hArg = N=C(N)NCCCC[C@H](N)C(=O)O; 12Ado = NCCCCCCCCCCCC(=O)O; Nle = CCCC[C@H](N)C(=O)O; Orn = NCCC[C@H](N)C(=O)O; Abu = CC[C@H](N)C(=O)O

Tests used:
[1] = test system: CFPAC-1 pancreatic cancer cells; test: In vitro cell viability, CFPAC-1; type: cell-based, human; conditions: for In vitro relative inhibitory potency in comparison to MIA-602, CFPAC-1: Table 3B, 5 μM for 72 H, MIA-602 = 1
Summary of the method: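 Human tumour lines were exposed to GHRH antagonist at 1, 2.5 or 5 μM for 72 h with medium refreshed every 48 h, after 24 h in low-serum (0.5% FBS) medium. Cell viability (CellTiter 96) was expressed as inhibition relative to MIA602.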

[2] = target: T1, membrane GHRH-receptors on human anterior pituitary cells (Homo sapiens, UniProt Q02643); test: Receptor binding, displacement of 125I-[His1,Nle27]-hGH-RH(1-32)NH2 on human pituitary membranes; conditions: for binding affinity to membrane receptors of human pituitary cells (in words): competitive binding, human pituitary membrane fractions; for IC50: membrane receptors on human anterior pituitary cells, mean of two to three determinations, read-out: IC50
T1 construct: Human pituitary was purchased from the National Hormone and Peptide Program; tissue National Hormone and Peptide Program; host or cells: human pituitary (membrane fractions)
T1 sequence (Q02643 23-423): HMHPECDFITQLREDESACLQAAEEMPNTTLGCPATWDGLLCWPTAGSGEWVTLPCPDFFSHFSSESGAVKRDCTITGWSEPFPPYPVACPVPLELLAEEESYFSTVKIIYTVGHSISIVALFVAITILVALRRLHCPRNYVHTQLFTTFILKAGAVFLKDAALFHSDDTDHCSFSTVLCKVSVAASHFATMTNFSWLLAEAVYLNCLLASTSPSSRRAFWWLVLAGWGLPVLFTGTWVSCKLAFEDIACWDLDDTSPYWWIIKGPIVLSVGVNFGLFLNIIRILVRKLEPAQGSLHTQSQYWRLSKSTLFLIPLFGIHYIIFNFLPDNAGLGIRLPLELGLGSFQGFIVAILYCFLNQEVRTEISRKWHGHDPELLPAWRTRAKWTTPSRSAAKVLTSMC
Summary of the method: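 Membrane fractions from human pituitary; peptides displace 125I-[His1,Nle27]-hGH-RH(1-32)NH2. IC50 is the dose giving 50% inhibition of specific binding, from duplicate tubes. Relative affinity is the ratio of test IC50 to hGH-RH(1-29)NH2 IC50.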

IC50 [2] | Structure (SMILES) | In vitro relative inhibitory potency in comparison to MIA-602, CFPAC-1 [1] | binding affinity to membrane receptors of human pituitary cells (in words) [2] | relative inhibitory potency in comparison to MIA-602, Pancreatic CFPAC-1 ([1]; antagonist 5 μM for 72 h, cell proliferation assay, MIA602 = 1)
0.09 nM | CCCC[C@H](NC(=O)[C@@H](NC(=O)[C@H](CC(=O)O)NC(=O)[C@H](CCC(N)=O)NC(=O)[C@H](CC(C)C)NC(=O)[C@H](CC(C)C)NC(=O)[C@H](CCCCN)NC(=O)[C@H](CCCNC(=N)N)NC(=O)[C@H](C)NC(=O)[C@H](CO)NC(=O)[C@H](CC(C)C)NC(=O)[C@H](CCC(N)=O)NC(=O)[C@H](CC)NC(=O)[C@H](CC(C)C)NC(=O)[C@@H](NC(=O)[C@H](CCCCN)NC(=O)[C@H](CCCNC(=N)N)NC(=O)[C@H](Cc1ccc(OC)cc1)NC(=O)[C@H](CCCCNC(=N)N)NC(=O)[C@H](C)NC(=O)[C@@H](NC(=O)[C@H](Cc1c(F)c(F)c(F)c(F)c1F)NC(=O)[C@@H](NC(=O)[C@H](C)NC(=O)[C@H](CC(=O)O)NC(=O)[C@@H](CCCNC(=N)N)NC(=O)[C@H](Cc1ccc(O)cc1)NC(=O)CCCCCCCCCCCNC(=O)Cc1c(F)c(F)c(F)c(F)c1F)[C@@H](C)CC)[C@@H](C)O)C(C)C)[C@@H](C)CC)C(=O)N[C@H](CCCNC(=N)N)C(=O)N[C@@H](CCCCNC(=N)N)C(=O)NCCCCCCCCCCCC(N)=O [AVR-352, 5FPhAC-Ada-Tyr-DArg-Asp-Ala-Ile-5FPhe-Thr-Ala-Har-Tyr(Me)-Arg-Lys-Val-Leu-Abu-Gln-Leu-Ser-Ala-Arg-Lys-Leu-Leu-Gln-Asp-Ile-Nle-DArg-Har-Ada-NH2] ({Phenylacetyl(2,3,4,5,6-F5)-12Ado}-Y[dR]DAI[Phe(F5)]TA[hArg]Y(Me)RKVL[Abu]QLSARKLLQDI[Nle][dR][hArg][12Ado]-NH2) | 1.576 | higher binding affinity in comparison to MIA-602; also recorded: highest binding affinities | 
0.25 nM | CCCC[C@H](NC(=O)[C@@H](NC(=O)[C@H](CC(=O)O)NC(=O)[C@H](CCC(N)=O)NC(=O)[C@H](CC(C)C)NC(=O)[C@H](CC(C)C)NC(=O)[C@H](CCCN)NC(=O)[C@H](Cc1c[nH]cn1)NC(=O)[C@H](C)NC(=O)[C@H](CO)NC(=O)[C@H](CC(C)C)NC(=O)[C@H](CCC(N)=O)NC(=O)[C@H](CC)NC(=O)[C@H](CC(C)C)NC(=O)[C@@H](NC(=O)[C@H](CCCN)NC(=O)[C@H](Cc1c[nH]cn1)NC(=O)[C@H](Cc1c(F)c(F)c(F)c(F)c1F)NC(=O)[C@H](CCCCNC(=N)N)NC(=O)[C@H](C)NC(=O)[C@@H](NC(=O)[C@H](Cc1ccc(Cl)cc1)NC(=O)[C@@H](NC(=O)[C@H](C)NC(=O)[C@H](CC(=O)O)NC(=O)[C@@H](CCCNC(=N)N)NC(=O)[C@H](Cc1ccc(O)cc1)NC(=O)CCCCCCCCCCCNC(=O)Cc1c(F)c(F)c(F)c(F)c1F)[C@@H](C)CC)[C@@H](C)O)C(C)C)[C@@H](C)CC)C(=O)N[C@H](CCCNC(=N)N)C(=O)N[C@@H](CCCCNC(=N)N)C(=O)NCCCCCCCCCCCC(=O)NC [AVR-543, 5FPhAC-Ada-Tyr-DArg-Asp-Ala-Ile-Cpa-Thr-Ala-Har-5FPhe-His-Orn-Val-Leu-Abu-Gln-Leu-Ser-Ala-His-Orn-Leu-Leu-Gln-Asp-Ile-Nle-DArg-Har-Ada-NHCH3] ({Phenylacetyl(2,3,4,5,6-F5)-12Ado}-Y[dR]DAI[Phe(4-Cl)]TA[hArg][Phe(F5)]H[Orn]VL[Abu]QLSAH[Orn]LLQDI[Nle][dR][hArg][12Ado]-NHMe) | 2.05 |  | 
0.11 nM | CCCC[C@H](NC(=O)[C@@H](NC(=O)[C@H](CC(=O)O)NC(=O)[C@H](CCC(N)=O)NC(=O)[C@H](CC(C)C)NC(=O)[C@H](CC(C)C)NC(=O)[C@H](CCCCN)NC(=O)[C@H](CCCNC(=N)N)NC(=O)[C@H](C)NC(=O)[C@H](CO)NC(=O)[C@H](CC(C)C)NC(=O)[C@H](CCC(N)=O)NC(=O)[C@H](CC)NC(=O)[C@H](CC(C)C)NC(=O)[C@@H](NC(=O)[C@H](CCCCN)NC(=O)[C@H](CCCNC(=N)N)NC(=O)[C@H](Cc1c(F)c(F)c(F)c(F)c1F)NC(=O)[C@H](CCCCNC(=N)N)NC(=O)[C@H](C)NC(=O)[C@@H](NC(=O)[C@H](Cc1ccc(Cl)cc1)NC(=O)[C@@H](NC(=O)[C@H](C)NC(=O)[C@H](CC(=O)O)NC(=O)[C@@H](CCCNC(=N)N)NC(=O)[C@H](Cc1ccc(O)cc1)NC(=O)CCCCCCCCCCCNC(=O)Cc1c(F)c(F)c(F)c(F)c1F)[C@@H](C)CC)[C@@H](C)O)C(C)C)[C@@H](C)CC)C(=O)N[C@H](CCCNC(=N)N)C(=O)N[C@@H](CCCCNC(=N)N)C(=O)NCCCCCCCCCCCC(N)=O [AVR-353, 5FPhAC-Ada-Tyr-DArg-Asp-Ala-Ile-Cpa-Thr-Ala-Har-5FPhe-Arg-Lys-Val-Leu-Abu-Gln-Leu-Ser-Ala-Arg-Lys-Leu-Leu-Gln-Asp-Ile-Nle-DArg-Har-Ada-NH2] ({Phenylacetyl(2,3,4,5,6-F5)-12Ado}-Y[dR]DAI[Phe(4-Cl)]TA[hArg][Phe(F5)]RKVL[Abu]QLSARKLLQDI[Nle][dR][hArg][12Ado]-NH2) | 2.922 | higher binding affinity in comparison to MIA-602; also recorded: highest binding affinities | 
0.3 nM | CCCC[C@H](NC(=O)[C@@H](NC(=O)[C@H](CC(=O)O)NC(=O)[C@H](CCC(N)=O)NC(=O)[C@H](CC(C)C)NC(=O)[C@H](CC(C)C)NC(=O)[C@H](CCCCN)NC(=O)[C@H](CCCNC(=N)N)NC(=O)[C@H](C)NC(=O)[C@H](CO)NC(=O)[C@H](CC(C)C)NC(=O)[C@H](CCC(N)=O)NC(=O)[C@H](CC)NC(=O)[C@H](CC(C)C)NC(=O)[C@@H](NC(=O)[C@H](CCCCN)NC(=O)[C@H](CCCNC(=N)N)NC(=O)[C@H](Cc1ccc(OC)cc1)NC(=O)[C@H](CCCCNC(=N)N)NC(=O)[C@H](CC(N)=O)NC(=O)[C@@H](NC(=O)[C@H](Cc1ccc(Cl)cc1)NC(=O)[C@@H](NC(=O)[C@H](C)NC(=O)[C@H](CC(=O)O)NC(=O)[C@@H](CCCNC(=N)N)NC(=O)[C@H](Cc1ccc(O)cc1)NC(=O)CCCCCCCCCCCNC(=O)Cc1c(F)c(F)c(F)c(F)c1F)[C@@H](C)CC)[C@@H](C)O)C(C)C)[C@@H](C)CC)C(=O)N[C@H](CCCNC(=N)N)C(=O)N[C@@H](CCCCNC(=N)N)C(=O)NCCCCCCCCCCCC(N)=O [AVR-333, 5FPhAC-Ada-Tyr-DArg-Asp-Ala-Ile-Cpa-Thr-Asn-Har-Tyr(Me)-Arg-Lys-Val-Leu-Abu-Gln-Leu-Ser-Ala-Arg-Lys-Leu-Leu-Gln-Asp-Ile-Nle-DArg-Har-Ada-NH2] ({Phenylacetyl(2,3,4,5,6-F5)-12Ado}-Y[dR]DAI[Phe(4-Cl)]TN[hArg]Y(Me)RKVL[Abu]QLSARKLLQDI[Nle][dR][hArg][12Ado]-NH2) | 2.288 |  | 
 | CCCC[C@H](NC(=O)[C@@H](NC(=O)[C@H](CC(=O)O)NC(=O)[C@H](CCC(N)=O)NC(=O)[C@H](CC(C)C)NC(=O)[C@H](CC(C)C)NC(=O)[C@H](CCCCN)NC(=O)[C@H](CCCNC(=N)N)NC(=O)[C@H](C)NC(=O)[C@H](CO)NC(=O)[C@H](CC(C)C)NC(=O)[C@H](CCC(N)=O)NC(=O)[C@H](CC)NC(=O)[C@H](CC(C)C)NC(=O)[C@@H](NC(=O)[C@H](CCCCN)NC(=O)[C@H](CCCNC(=N)N)NC(=O)[C@H](Cc1ccc(OC)cc1)NC(=O)[C@H](CCCCNC(=N)N)NC(=O)[C@H](C)NC(=O)[C@@H](NC(=O)[C@H](Cc1c(F)c(F)c(F)c(F)c1F)NC(=O)[C@@H](NC(=O)[C@H](C)NC(=O)[C@H](CC(=O)O)NC(=O)[C@@H](CCCNC(=N)N)NC(=O)[C@H](Cc1ccc(O)cc1)NC(=O)CCCCCCCCCCCNC(=O)Cc1c(F)c(F)c(F)c(F)c1F)[C@@H](C)CC)[C@@H](C)O)C(C)C)[C@@H](C)CC)C(=O)N[C@H](CCCNC(=N)N)C(=O)N[C@@H](CCCCNC(=N)N)C(=O)NC [AVR-235] ({Phenylacetyl(2,3,4,5,6-F5)-12Ado}-Y[dR]DAI[Phe(F5)]TA[hArg]Y(Me)RKVL[Abu]QLSARKLLQDI[Nle][dR][hArg]-NHMe) | 1.497 |  | 1.399
 | CCCC[C@H](NC(=O)[C@@H](NC(=O)[C@H](CC(=O)O)NC(=O)[C@H](CCC(N)=O)NC(=O)[C@H](CC(C)C)NC(=O)[C@H](CC(C)C)NC(=O)[C@H](CCCCN)NC(=O)[C@H](CCCNC(=N)N)NC(=O)[C@H](C)NC(=O)[C@H](CO)NC(=O)[C@H](CC(C)C)NC(=O)[C@H](CCC(N)=O)NC(=O)[C@H](CC)NC(=O)[C@H](CC(C)C)NC(=O)[C@@H](NC(=O)[C@H](CCCCN)NC(=O)[C@H](CCCNC(=N)N)NC(=O)[C@H](Cc1c(F)c(F)c(F)c(F)c1F)NC(=O)[C@H](CCCCNC(=N)N)NC(=O)[C@H](C)NC(=O)[C@@H](NC(=O)[C@H](Cc1ccc(Cl)cc1)NC(=O)[C@@H](NC(=O)[C@H](C)NC(=O)[C@H](CC(=O)O)NC(=O)[C@@H](CCCNC(=N)N)NC(=O)[C@H](Cc1ccc(O)cc1)NC(=O)CCCCCCCCCCCNC(=O)Cc1c(F)c(F)c(F)c(F)c1F)[C@@H](C)CC)[C@@H](C)O)C(C)C)[C@@H](C)CC)C(=O)N[C@H](CCCNC(=N)N)C(=O)N[C@@H](CCCCNC(=N)N)C(=O)NCCCCCCCCCCCC(=O)NC [AVR-354] ({Phenylacetyl(2,3,4,5,6-F5)-12Ado}-Y[dR]DAI[Phe(4-Cl)]TA[hArg][Phe(F5)]RKVL[Abu]QLSARKLLQDI[Nle][dR][hArg][12Ado]-NHMe) | 1.67 | higher binding affinity in comparison to MIA-602; also recorded: highest binding affinities | 
